From US10966426B2, “Herbicidal compositions comprising phenylpyrimidines” (BASF SE, priority 2016, dated 2021)

Experiments:
Assay type in all cases: in vivo
Poa annua = assay: greenhouse post-emergence treatment, POAAN; details: for % activity: 21 DAT
Method: (§1) The culture containers used were plastic pots containing loamy sand with approximately 3.0% of humus as substrate. The seeds of the test plants were sown separately for each species.
(§2) For the post-emergence treatment, the test plants were grown to a plant height of from 3 to 15 cm, depending on the plant habit, and only then treated with the active compounds which had been suspended or emulsified in water. To this end, the test plants were either sown directly, and grown in the same containers, or they were first grown separately as seedlings and transplanted into the test containers a few days prior to treatment.
(§3) Depending on the species, the plants were kept at 10-25° C. and 20-35° C., respectively.
(§4) The test period extended over 2 to 4 weeks. During this time, the plants were tended and their response to the individual treatments was evaluated.
(§5) Evaluation was carried out using a scale from 0 to 100. 100 means no emergence of the plants, or complete destruction of at least the above-ground parts, and 0 means no damage or normal course of growth. A good herbicidal activity is given at values of at least 70, and very good herbicidal activity is given at values of at least 85.
(§6) The respective stated components A and B, and if appropriate, C were formulated as a 10% by weight strength emulsion concentrate and, with addition of the amount of solvent system, introduced into the spray liquor used for applying the active compound. In the examples, the solvent used was water.
(§7) In the examples below, using the method of S. R. Colby (1967) “Calculating synergistic and antagonistic responses of herbicide combinations”, Weeds 15, p. 22ff., the value E, which is expected if the activity of the individual active compounds is only additive, was calculated. E=X+Y−(X·Y/100) where X=effect in percent using herbicide A at an application rate a; • Y=effect in percent using herbicide B at application rate b; • E=expected effect (in %) of herbicide A+herbicide B at application rates a+b.

Alopecurus myosuroides = assay: greenhouse post-emergence treatment, ALOMY; details: for % activity: 21 DAT
Method: as §1
To this end, the test plants were either sown directly, and grown in the same containers, or they were first grown separately as seedlings and transplanted into the test containers a few days prior to treatment.
as §3, §4, §5
In the examples, the solvent used was water.
In the examples below, using the method of S. R. Colby (1967) “Calculating synergistic and antagonistic responses of herbicide combinations”, Weeds 15, p. […] E=X+Y−(X·Y/100) where X=effect in percent using herbicide A at an application rate a; • Y=effect in percent using herbicide B at application rate b; • E=expected effect (in %) of herbicide A+herbicide B at application rates a+b.

Papaver rhoeas = assay: greenhouse post-emergence treatment, PAPRH; details: for % activity: 21 DAT
Method: as §1, §2, §3, §4, §5, §6, §7

Avena fatua = assay: greenhouse post-emergence treatment, AVEFA; details: Avena fatua, 480 h, 20 DAT, AVEFA, Table X4, read-out: % activity, solo application
Outline: (§8)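 Plants were grown in pots of loamy sand with approximately 3.0% humus, either sown directly or transplanted as seedlings a few days before treatment, and sprayed with water-based treatments. They were kept at 10-25° C. or 20-35° C. depending on species and rated visually after 2 to 4 weeks on a 0–100 scale (100 = no emergence or complete destruction of above-ground parts).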

Matricaria chamomilla = assay: greenhouse post-emergence treatment, MATCH
Outline: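 Post-emergence greenhouse spray on 3–15 cm plants, sown direct or transplanted a few days before treatment. Scored visually on a 0–100 scale after 2 to 4 weeks; expected additive effect computed by Colby: E=X+Y−(X·Y/100).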

Lolium multiflorum = assay: greenhouse post-emergence treatment, LOLMU; details: for % activity: 21 DAT
Outline: as §8

Setaria viridis = assay: greenhouse post-emergence treatment, SETVI
Outline: as §8

Galium aparine = assay: greenhouse post-emergence treatment, GALAP; details: Galium aparine, 480 h
Method: as §1, §2, §3, §4, §5, §6, §7

Stellaria media = assay: greenhouse post-emergence treatment, STEME; details: Stellaria media, 480 h, read-out: % activity
Method: as §1, §2, §3, §4, §5, §6, §7

Digitaria sanguinalis = assay: greenhouse post-emergence treatment, DIGSA
Outline: as §8

Bromus sterilis = assay: greenhouse post-emergence treatment, BROST; details: for % activity: 21 DAT
Outline: as §8

Brachiaria decumbens = assay: greenhouse post-emergence treatment, BRADC; details: Urochloa decumbens, 480 h, read-out: % activity
Method: as §1, §2, §3, §4, §5, §6, §7

Apera spica-venti = assay: greenhouse post-emergence treatment, APESV
Method: as §1, §2, §3, §4, §5, §6, §7

Polygonum aviculare = assay: greenhouse post-emergence treatment, POLAV; details: Polygonum aviculare, 480 h, 20 DAT, POLAV, Table X4, read-out: % activity, solo application
Method: as §1, §2, §3, §4, §5, §6, §7

Polygonum convolvulus = assay: greenhouse post-emergence treatment, POLCO; details: 21 DAT
Method: as §1, §2, §3, §4, §5, §6, §7

Echinocloa crus-galli = assay: greenhouse post-emergence treatment, ECHCG; details: ECHCG, 21 DAT
Method: as §1, §2, §3, §4, §5, §6, §7

Ambrosia elatior = assay: greenhouse post-emergence treatment, AMBEL; details: 21 DAT, topramezone solo 6 gai/ha
Method: as §1, §2, §3, §4, §5, §6, §7

[1] = Poa annua, 480 h, read-out: % activity
[2] = Alopecurus myosuroides, 480 h, read-out: % activity
[3] = Lolium multiflorum, 480 h, read-out: % activity
[4] = Digitaria sanguinalis, 480 h, read-out: % activity
[5] = Bromus sterilis, 480 h, read-out: % activity
[6] = 21 DAT, topramezone solo 6 gai/ha
[7] = 21 DAT, topramezone solo 3 gai/ha

N#Cc1cc(Br)c(O)c(Br)c1 [Bromoxynil, bromoxynil]
pest or weed control at 31.25 g/ha (Poa annua; [1]): 0%
pest or weed control at 62.5 g/ha (Poa annua; [1]): 0%
pest or weed control at 125 g/ha (Poa annua; [1]): 0%
pest or weed control at 250 g/ha (Poa annua; [1]): 0%
pest or weed control at 31.25 g/ha (Alopecurus myosuroides; [2]): 0%
pest or weed control at 62.5 g/ha (Alopecurus myosuroides; [2]): 0%
pest or weed control at 125 g/ha (Alopecurus myosuroides; [2]): 0%
pest or weed control at 250 g/ha (Alopecurus myosuroides; [2]): 10%
inhibition at 31.25 g/ha (Papaver rhoeas; Papaver rhoeas, 480 h, 31.25 gai/ha (EC 235 g/l), 20 DAT, PAPRH, Table X4, read-out: % activity, solo application): 40%
inhibition at 31.25 g/ha (Avena fatua; 31.25 gai/ha (EC 235 g/l)): 0%
inhibition at 125 g/ha (Avena fatua; 125 gai/ha (EC 235 g/l)): 0%
inhibition at 31.25 g/ha (Matricaria chamomilla; Matricaria chamomilla, 480 h, 31.25 gai/ha (EC 235 g/l), 20 DAT, MATCH, Table X4, read-out: % activity, solo application): 55%
inhibition at 31.25 g/ha (Lolium multiflorum; Lolium multiflorum, 480 h, 31.25 gai/ha (EC 235 g/l), 20 DAT, LOLMU, Table X4, read-out: % activity, solo application): 0%
inhibition at 62.5 g/ha (Lolium multiflorum; Lolium multiflorum, 480 h, 62.5 gai/ha (EC 235 g/l), 20 DAT, LOLMU, Table X4, read-out: % activity, solo application): 0%
inhibition at 125 g/ha (Lolium multiflorum; Lolium multiflorum, 480 h, 125 gai/ha (EC 235 g/l), 20 DAT, LOLMU, Table X4, read-out: % activity, solo application): 0%
inhibition at 250 g/ha (Lolium multiflorum; Lolium multiflorum, 480 h, 250 gai/ha (EC 235 g/l), 20 DAT, LOLMU, Table X4, read-out: % activity, solo application): 0%
pest or weed control at 31.25 g/ha (Lolium multiflorum; [3]): 0%
pest or weed control at 62.5 g/ha (Lolium multiflorum; [3]): 0%
pest or weed control at 125 g/ha (Lolium multiflorum; [3]): 0%
pest or weed control at 250 g/ha (Lolium multiflorum; [3]): 0%
inhibition at 31.25 g/ha (Setaria viridis; Setaria viridis, 480 h, 31.25 gai/ha (EC 235 g/l), 20 DAT, SETVI, Table X4, read-out: % activity, solo application): 0%
inhibition at 250 g/ha (Setaria viridis; Setaria viridis, 480 h, 250 gai/ha (EC 235 g/l), 20 DAT, SETVI, Table X4, read-out: % activity, solo application): 0%
inhibition at 62.5 g/ha (Galium aparine; 62.5 gai/ha (EC 235 g/l), 20 DAT, GALAP, Table X4, read-out: % activity, solo application): 65%
inhibition at 125 g/ha (Galium aparine; 125 gai/ha (EC 235 g/l), 20 DAT, GALAP, Table X4, read-out: % activity, solo application): 80%
pest or weed control at 31.25 g/ha (Galium aparine; read-out: % activity): 65%
pest or weed control at 62.5 g/ha (Galium aparine; read-out: % activity): 65%
pest or weed control at 125 g/ha (Galium aparine; read-out: % activity): 80%
pest or weed control at 31.25 g/ha (Stellaria media): 30%
pest or weed control at 62.5 g/ha (Stellaria media): 50%
pest or weed control at 125 g/ha (Stellaria media): 60%
inhibition at 31.25 g/ha (Digitaria sanguinalis; Digitaria sanguinalis, 480 h, 31.25 gai/ha (EC 235 g/l), 20 DAT, DIGSA, Table X4, read-out: % activity, solo application): 0%
inhibition at 62.5 g/ha (Digitaria sanguinalis; Digitaria sanguinalis, 480 h, 62.5 gai/ha (EC 235 g/l), 20 DAT, DIGSA, Table X4, read-out: % activity, solo application): 0%
inhibition at 125 g/ha (Digitaria sanguinalis; Digitaria sanguinalis, 480 h, 125 gai/ha (EC 235 g/l), 20 DAT, DIGSA, Table X4, read-out: % activity, solo application): 0%
inhibition at 250 g/ha (Digitaria sanguinalis; Digitaria sanguinalis, 480 h, 250 gai/ha (EC 235 g/l), 20 DAT, DIGSA, Table X4, read-out: % activity, solo application): 0%
pest or weed control at 31.25 g/ha (Digitaria sanguinalis; [4]): 0%
pest or weed control at 62.5 g/ha (Digitaria sanguinalis; [4]): 0%
pest or weed control at 125 g/ha (Digitaria sanguinalis; [4]): 0%
pest or weed control at 250 g/ha (Digitaria sanguinalis; [4]): 0%
pest or weed control at 31.25 g/ha (Bromus sterilis; [5]): 0%
pest or weed control at 62.5 g/ha (Bromus sterilis; [5]): 0%
pest or weed control at 125 g/ha (Bromus sterilis; [5]): 0%
pest or weed control at 250 g/ha (Bromus sterilis; [5]): 0%
pest or weed control at 31.25 g/ha (Brachiaria decumbens): 0%
pest or weed control at 62.5 g/ha (Brachiaria decumbens): 0%
pest or weed control at 125 g/ha (Brachiaria decumbens): 10%
% activity (Apera spica-venti; APESV, bromoxynil solo 250 gai/ha, 20 DAT): 0%
inhibition at 31.25 g/ha (Polygonum aviculare; 31.25 gai/ha (EC 235 g/l)): 65%
inhibition at 62.5 g/ha (Polygonum aviculare; 62.5 gai/ha (EC 235 g/l)): 65%
inhibition at 125 g/ha (Polygonum aviculare; 125 gai/ha (EC 235 g/l)): 65%

Cc1c(C(=O)c2cnn(C)c2O)ccc(S(C)(=O)=O)c1C1=NOCC1 [topramezone]
% activity (Poa annua; topramezone solo 3 gai/ha): 0%
% activity (Poa annua; topramezone solo 6 gai/ha): 0%
% activity (Poa annua; topramezone solo 12 gai/ha): 0%
% activity (Poa annua; topramezone solo 24 gai/ha): 0%
% activity (Poa annua; POAAN, solo topramezone (SC 336 g/l) 3 gai/ha): 0%
% activity (Poa annua; POAAN, solo topramezone (SC 336 g/l) 6 gai/ha): 0%
% activity (Poa annua; POAAN, solo topramezone (SC 336 g/l) 12 gai/ha): 0%
% activity (Poa annua; POAAN, solo topramezone (SC 336 g/l) 24 gai/ha): 0%
% activity (Alopecurus myosuroides; topramezone solo 3 gai/ha): 0%
% activity (Alopecurus myosuroides; topramezone solo 6 gai/ha): 0%
% activity (Alopecurus myosuroides; topramezone solo 12 gai/ha): 0%
% activity (Alopecurus myosuroides; topramezone solo 24 gai/ha): 10%
% activity (Alopecurus myosuroides; ALOMY, solo topramezone (SC 336 g/l) 3 gai/ha): 0%
% activity (Alopecurus myosuroides; ALOMY, solo topramezone (SC 336 g/l) 6 gai/ha): 0%
% activity (Alopecurus myosuroides; ALOMY, solo topramezone (SC 336 g/l) 12 gai/ha): 0%
% activity (Papaver rhoeas; topramezone solo 12 gai/ha): 20%
% activity (Papaver rhoeas; topramezone solo 24 gai/ha): 40%
% activity (Papaver rhoeas; PAPRH, solo topramezone (SC 336 g/l) 3 gai/ha): 0%
% activity (Papaver rhoeas; PAPRH, solo topramezone (SC 336 g/l) 6 gai/ha): 0%
% activity (Matricaria chamomilla; [6]): 30%
% activity (Lolium multiflorum; topramezone solo 3 gai/ha): 0%
% activity (Lolium multiflorum; topramezone solo 6 gai/ha): 0%
% activity (Lolium multiflorum; topramezone solo 12 gai/ha): 10%
% activity (Lolium multiflorum; topramezone solo 24 gai/ha): 20%
% activity (Lolium multiflorum; LOLMU, solo topramezone (SC 336 g/l) 6 gai/ha): 0%
% activity (Polygonum convolvulus; topramezone solo 3 gai/ha): 0%
% activity (Polygonum convolvulus; topramezone solo 6 gai/ha): 30%
% activity (Polygonum convolvulus; topramezone solo 12 gai/ha): 30%
% activity (Polygonum convolvulus; topramezone solo 24 gai/ha): 85%
% activity (Setaria viridis; [7]): 70%
% activity (Echinocloa crus-galli; solo topramezone (SC 336 g/l) 3 gai/ha): 70%
% activity (Echinocloa crus-galli; solo topramezone (SC 336 g/l) 12 gai/ha): 98%
% activity (Echinocloa crus-galli; solo topramezone (SC 336 g/l) 24 gai/ha): 98%
% activity (Digitaria sanguinalis; [7]): 75%
% activity (Bromus sterilis; topramezone solo 3 gai/ha): 0%
% activity (Bromus sterilis; topramezone solo 6 gai/ha): 0%
% activity (Bromus sterilis; topramezone solo 12 gai/ha): 5%
% activity (Bromus sterilis; topramezone solo 24 gai/ha): 25%
% activity (Apera spica-venti; [7]): 0%
% activity (Apera spica-venti; [6]): 0%
% activity (Apera spica-venti; 21 DAT, topramezone solo 12 gai/ha): 30%
% activity (Ambrosia elatior): 95%
